Reference: US4092426A, “Novel aminobenzoic acid derivatives, process for preparing the same and pharmaceutical composition containing the same” (Chugai Seiyaku Kabushiki Kaisha, priority 1975, dated 1978)

Tests used:
triglyceride in liver = assay: Action for decreasing triglyceride in liver (ethanol-induced); assay type: in vivo, Sprague Dawley strain female rats; details: Rattus norvegicus, po, 24 h, oral 100 mg/kg, 30 min before ethanol 6 g/kg, read-out: % Prevention (of increase in triglyceride content in the liver)
Procedure: Sprague Dawley strain female rats each weighing 170 - 200 g which had been fasted for 15 hours were divided into groups of 4 rats each. The rats were orally administered a different test compound in a dose of 100 mg/kg, and 30 minutes after the administration, orally administered ethanol in a dose of 6 g/kg. Twenty-four hours after the administration of ethanol, the liver of each rat was taken out and neutral lipid level in the liver was measured in a conventional manner to calculate the ratio of preventing an increase in triglyceride content in the liver. For a control group, ethanol and, for the other control group, a glucose aqueous solution equivalent in calorific value to the same amount of ethanol were used and the same manner as those of test groups, and for the positive control group, commercially available 2-mercaptopropionylglycine was used instead of the test compound.
*The % prevention was calculated by the following

plaque forming cells = assay: Increase in Number of Plaque Forming Cells after sensitization with SRBC (Jerne's plaque method); assay type: in vivo, Sprague Dawley strain male rats
Procedure: (§1) Sprague Dawley strain male rats weighing 200 - 220 g which were divided into 7 groups of 5 or 6 rats each were used as test animals.
(§2) The six groups were orally administered by one shot with the test compound, N-2'-carboxyphenyl-4-chloroanthranilic acid in a dose of 100 mg/kg on six different days, a day before the sensitization, on the date, a day after, two days after, three days after and four days after the sensitization with an antigen (SRBC: Sheep red blood cell). The SRBC was intraveneously injected in the rat through the tail vein in an amount of 1 ml as a 2% aqueous suspension. For control groups, a physiological saline solution was used in the same amount and in the same manner as those of the test groups on the day of sensitization.
(§3) Five days after the sensitization, the rats were sacrificed and the spleen of each of the rats was taken out and the blood was sampled.
(§4) The number of plaque forming cells and titers in blood were determined by the Jerne's plaque method and a hemolysing method, respectively.

Acute Toxicity = assay: Acute Toxicity; design: species or system Wistar-Imamichi strain male and female rats; details: rat, in vivo, po, suspension in 5% gum arabi
Procedure: Acute toxicity of N-2'-carboxyphenyl-4-chloroanthranilic acid was determined using Wistar-Imamichi strain male and female rats (11 week old) as test animals. The test compound was orally administered as a suspension in a 5% gum arabi aqueous solution.

antibody in blood = assay: Titer of Antibody in Blood after sensitization with SRBC (hemolysing method); assay type: in vivo, Sprague Dawley strain male rats; details: administered on the day and a day after the sensitization with SRBC
Procedure: as §1, §2, §3, §4

[1] = test system: concentration of ICG in the blood; assay: Indocyanogree (ICG) Test; assay type: in vivo, Sprague Dawley strain male rats; details: rat, oral 100 mg/kg; ICG 2 mg/head i.v.; 15 min after; ** P<0.02
Procedure: Sprague Dawley strain male rats weighing 180 - 210 g which had been fasted for 15 hours were divided into groups of 4 rats each. The rats were orally administered a different test compound in a dose of 100 mg/kg, and 60 minutes after the administration, each of the rats was injected through the tail vein with 2 mg/head of ICG. Fifteen minutes after the injection, the blood of each rat was sampled from the heart and the concentration of ICG in the blood was determined in a conventional colorimetric manner. As control, a physiological saline solution was used.

[2] = test system: concentration of BSP in blood; assay: Bromosulfophthalein (BSP) Test; assay type: in vivo, Sprague Dawley strain female rats; details: rat, oral 100 mg/kg; BSP 28 mg/head i.v.; 30 min after; ** P<0.01
Procedure: Sprague Dawley strain female rats each weighing 150 - 190 g which had been fasted for 15 hours were divided into groups of 4 rats each. The rats were orally administered a different test compound in a dose of 100 mg/kg, and 60 minutes after the administration, each of the rats was injected through the tail vein with 28 mg/head of BSP. Thirty minutes after the injection, the blood of each rat was sampled from the heart and the concentration of BSP was determined in a conventional colorimetric manner. As control, a physiological saline solution was orally administered instead of the test compound.

[3] = test system: concentration of bilirubin in the blood; assay: Bilirubin Excretion Activity; assay type: in vivo, Sprague Dawley strain female rats; details: rat, oral 100 mg/kg; bilirubin i.v.; 20 min after; ** P<0.02
Procedure: Sprague Dawley strain female rats each weighing 160 - 200 g which had been fasted for 15 hours were divided into groups of 6 rats each. The rats were orally administered with a different test compound in a dose of 100 mg/kg, and 60 minutes after the administration, each of the rats was injected through the tail vein with […] of bilirubin. Twenty minutes after the injection, the blood of each rat was sampled from the heart and the concentration of bilirubin in the blood was determined in a conventional manner.
As control, a physiological saline solution was used instead of the test compound.

[4] = test system: plaque forming cells (PFC) in the spleen; assay: Activity for Recovering Immune Depletion by cortisone: plaque forming cells (PFC) in the spleen; assay type: in vivo, IV CS strain male mice; details: cortisone 60 mg/kg i.p. alone
Procedure: As test animals, IV CS strain male mice (5 week old) were used by dividing them into groups of 5 members each. Each mouse was intraperitoneally administered with cortisone in a dose of 60 mg/kg once a day for 5 days. Three days after the first administration, the sensitization with an antigen, sheep red blood cell (SRBC), was made by injecting the antigen into the mouse through the tail vein. Each mouse was orally administered with the test compound, disodium salt of N-2'-carboxyphenyl-4-chloroanthranilic acid, a day after the sensitization. Five days after the sensitization, the number of plaque forming cells (PFC) in the spleen was measured in a usual manner.

[5] = test system: Pseudomonas aeruginosa Pa-II; assay: Activity for Protecting from Infection by Bucillus Pyocyaneous, with carbenicillin; assay type: in vivo; details: mouse, test compound (combination arm) 2 mg/head oral; for Number of Survival Animals/Number of Tested Animals: 54 hours
Procedure: As test animals, ddY strain male mice (5 week old) which were divided into groups of 9 members each were used. Each mouse was intraperitoneally administered with 10^6 Pseudomonas aeruginosa Pa-II, and 1.5 hours after the administeration, subcutaneously administered one shot of carbenicillin, an antibiotic. The test compound, disodium salt of N-2'-carboxyphenyl-4-chloroanthranilic acid, was orally administered once a day in a dose of 2 mg/head one and two days before the inoculation, respectively. The activity of the test compound was evaluated by observing the test animals for 54 hours after the inoculation.

Structure (SMILES): Cc1ccc(Nc2cc(Cl)ccc2C(=O)O)c(C(=O)O)c1 [N-2'-carboxy-4'-methylphenyl-4-chloroanthranilic acid]
- inhibition in vivo at 100 mg/kg (triglyceride in liver): 53.2%

Structure (SMILES): Cc1ccc(Nc2ccccc2C(=O)O)c(C(=O)O)c1 [N-2'-carboxyphenyl-5-methylanthranilic acid]
- inhibition in vivo at 100 mg/kg (triglyceride in liver): 20.1%

Structure (SMILES): Cc1cccc(C(=O)O)c1Nc1cc(Cl)ccc1C(=O)O [N-2'-carboxy-6'-methylphenyl-4-chloroanthranilic acid]
- inhibition in vivo at 100 mg/kg (triglyceride in liver): 25.2%

Structure (SMILES): Cc1c(Cl)ccc(C(=O)O)c1Nc1ccccc1C(=O)O [N-2'-carboxyphenyl-4-chloro-3-methylanthranilic acid]
- inhibition in vivo at 100 mg/kg (triglyceride in liver): 40.5%

Structure (SMILES): O=C(O)c1ccc(Cl)cc1Nc1cc(Cl)ccc1C(=O)O [N-2'-carboxy-5'-chlorophenyl-4-chloroanthranilic acid]
- inhibition in vivo at 100 mg/kg (triglyceride in liver): 57.2%

Structure (SMILES): O=C(O)c1ccccc1Nc1ccc(Cl)cc1C(=O)O [N-2'-carboxyphenyl-5-chloroanthranilic acid]
- inhibition in vivo at 100 mg/kg (triglyceride in liver): 30%

Structure (SMILES): O=C(O)c1ccccc1Nc1cc(Cl)ccc1C(=O)O [N-2'-carboxyphenyl-4-chloroanthranilic acid]
- Number of plaque forming cell/10^6 cells (plaque forming cells; 100 mg/kg oral, day 0 based on the sensitization, P<0.01): 193.4 ± 26.6 cell/10^6 cells
- Number of plaque forming cell/10^6 cells (plaque forming cells; 100 mg/kg oral, day +1 based on the sensitization, P<0.01): 316.8 ± 38.2 cell/10^6 cells
- Number of plaque forming cell/10^6 cells (plaque forming cells; 100 mg/kg oral, day +2 based on the sensitization): 76.5 ± 16.3 cell/10^6 cells
- Number of plaque forming cell/10^6 cells (plaque forming cells; 100 mg/kg oral, day +3 based on the sensitization): 101.0 ± 11.2 cell/10^6 cells
- Number of plaque forming cell/10^6 cells (plaque forming cells; 100 mg/kg oral, day +4 based on the sensitization): 95.5 ± 35.3 cell/10^6 cells
- Number of plaque forming cell/10^6 cells (plaque forming cells; 100 mg/kg oral, day -1 based on the sensitization, control 49.7 ± 16.0): 93.2 ± 28.6 cell/10^6 cells
- increase in number of plaque forming cells relative to control group (plaque forming cells; 100 mg/kg oral, maximum vs control): about six times as much as the value of the control group
- increase in the number of plaque forming cells (plaque forming cells; administered on the date and a day after the sensitization): significant increase
- LD50 (Acute Toxicity; female rat): 2600 mg/kg
- LD50 (Acute Toxicity; male rat): 2100 mg/kg
- inhibition in vivo at 100 mg/kg (triglyceride in liver): 67.1%
- increase in titers in blood (antibody in blood): significant increase
- % Remain of ICG [1]: 5.1 ± 0.2%
- % Remain of BSP [2]: 17.3±8.4%
- % Remain of Bilirubin [3]: 39.7 ± 13.3%

Structure (SMILES): C[C@]12CCC(=O)C=C1CC[C@@H]1[C@@H]2C(=O)C[C@@]2(C)[C@H]1CC[C@]2(O)C(=O)CO [Cortisone, cortisone, reference compound]
- number of PFC per spleen vs control without cortisone [4]: reduced to one third

Structure (SMILES): CC1(C)S[C@@H]2[C@H](NC(=O)C(C(=O)O)c3ccccc3)C(=O)N2[C@H]1C(=O)O (stereo partly shown) [Carbenicillin, carbenicillin]
- Number of Survival Animals/Number of Tested Animals ([5]; Carbenicillin 10 mg/head s.c.): 0/9
- Number of Survival Animals/Number of Tested Animals ([5]; Carbenicillin 20 mg/head s.c.): 2/9
- Number of Survival Animals/Number of Tested Animals ([5]; Carbenicillin 40 mg/head s.c.): 9/9
- ED50 (dose of carbenicillin) ([5]; 10^6 Pseudomonas aeruginosa Pa-II i.p.): 24.1 mg/head

Structure (SMILES): Cc1ccc(C)c(C(=O)O)c1Nc1cc(Cl)ccc1C(=O)O [N-2'-carboxy-3',6'-dimethylphenyl-4-chloroanthranilic acid]
- inhibition in vivo at 100 mg/kg (triglyceride in liver): 45.8%

Structure (SMILES): CC(S)C(=O)NCC(=O)O (stereo not shown) [2-mercaptopropionylglycine, reference compound]
- inhibition in vivo at 100 mg/kg (triglyceride in liver): 9.3%
